Target: T1, DhGMPP (Dendrobium huoshanense, UniProt A0A348HAW3)
T1 construct: gene GMPP; E. coli BL21-AI crude soluble extract, not purified
T1 sequence (A0A348HAW3 1-415): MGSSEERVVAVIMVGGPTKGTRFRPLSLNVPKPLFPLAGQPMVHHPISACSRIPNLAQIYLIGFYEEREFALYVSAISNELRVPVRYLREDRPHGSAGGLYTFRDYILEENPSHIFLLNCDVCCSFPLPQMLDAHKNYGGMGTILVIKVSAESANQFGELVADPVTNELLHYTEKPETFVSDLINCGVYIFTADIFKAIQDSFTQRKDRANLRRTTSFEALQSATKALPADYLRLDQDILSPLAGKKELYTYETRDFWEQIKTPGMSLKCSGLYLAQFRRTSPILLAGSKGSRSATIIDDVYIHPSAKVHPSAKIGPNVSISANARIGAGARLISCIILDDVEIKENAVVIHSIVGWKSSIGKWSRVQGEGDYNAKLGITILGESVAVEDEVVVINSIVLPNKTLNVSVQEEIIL
Test: HPLC ([…] nm) detection of GDP-mannose formed
Type: biochemical
Conditions: 2.5 mM GTP, 5 mM MgCl2, 50 mM Tris-HCl pH 7.4, 37 °C, 10 min, crude E. coli extract, untransformed-host extract and boiled protein as controls

Nc1nc2c(ncn2[C@@H]2O[C@H](COP(=O)(O)OP(=O)(O)OP(=O)(O)O)[C@@H](O)[C@H]2O)c(=O)[nH]1 [GTP]
HPLC (254 nm) detection of GDP-mannose formed (5 mM α-D-mannose-phosphate): By utilizing GTP and α-D-mannose-phosphate as substrates, DhGMPP catalyzes the reaction to yield GDP-mannose

O=P(O)(O)O[C@H]1O[C@H](CO)[C@@H](O)[C@H](O)[C@@H]1O [α-D-mannose-phosphate]
HPLC (254 nm) detection of GDP-mannose formed (5 mM substrate): By utilizing GTP and α-D-mannose-phosphate as substrates, DhGMPP catalyzes the reaction to yield GDP-mannose

From article PMC7988358, “Characterization of GMPP from Dendrobium huoshanense yielding GDP-D-mannose” (Open Life Sciences, 2021)
